Measurements as given in patent US8673882B2, “Inhibitors of autotaxin” (University of Tennessee Research Foundation, priority 2011, dated 2014).
“Also recorded” adds a separate entry of the source.

Columns and labels:
[1] = target: recombinant, purified human ATX (Homo sapiens, UniProt Q13822); assay: Mechanism of autotaxin inhibition (IC50, Ki, Ki′; FS-3 hydrolysis); format: biochemical; settings: for IC50: 8.3 nM ATX, 1 μM FS-3, 15 μM BSA; for ATX Mechanism of inhibition: FS-3 0.3 μM to 20 μM, inhibitor 0, 0.5× and 2× IC50
Procedure: The mechanism of inhibition of ATX was determined using recombinant, purified human ATX and FS-3. Final ATX and FS-3 concentrations were 8.3 nM and 1 μM, respectively and the assay buffer with 15 μM fatty acid tree BSA. To calculate IC50, full dose responses were determined for the test compounds. […] Simultaneous non-linear regression, using, WinNonLin® 6.1 (Pharsight, Mountain View, Calif.) was used to assign the mechanism of inhibition. Ki and Ki′ values (the affinity for free enzyme and enzyme substrate complex, respectively) were determined by calculating the lowest averaged percent residuals for each mechanism derived from curve fitting using the Michealis-Menten equations for competitive, uncompetitive, mixed-mode, and non-competitive inhibition.

[2] = tested on: MM1 hepatocarcinoma cells; assay: Invasion of HUVEC monolayer by MM1 cells; format: cell-based, rat; settings: for LPC-dependent invasion of the HUVEC monolayer: 1.5 μM LPC, FIG. 14; for basal rate of invasion: compounds alone, without LPC
Text: Cancer metastasis is a complex process that cannon be accurately modeled in vitro. Models that utilize cellular monolayers for the invasion of carcinoma cell come the closest to the situation in vivo. Two different cell monolayers, mouse mesothelium and human vascular endothelium were used to examine the role of ATX in the invasion of MM1 hepatocarcinoma cells and the reduction of such invasion by the chemical compounds of the present application. The mesothelial monolayer is an accepted model for invasion of body cavities lined by serous cells whereas, the HUVEC monolayer is considered to be an in vitro model of hematogenous invasion of carcinomas.
Highly invasive MM1 cells originally isolated from the AH130 rat hepatoma cells were utilized in these studies. The cells were grown in suspension in DMEM supplemented with 10% fetal bovine serum, 2 mM glutamine, 100 units/ml penicillin and 10 μg/ml streptoinycin. Mesothelial cells were isolated and cultured from C57BL/6 mice. Human umbilical cord vascular endothelial cells (HUVEC) were obtained from VEC Technologies Inc., (Rensselaer, N.Y., USA) and were grown in MCDB-131 complete medium containing 10% fetal bovine serum. 90 μg/ml heparin, 10 ng/ml EGF, 1 μg/ml hydrocortisone, 0.2 mg/ml EndoGrowth supplement, 100 units/ml penicillin G, 100 μg/ml streptomycin and 25 μg/ml amphotericin B (all from VEC Technologies). Tumor cell invasion was performed by seeding 1.3×10^5 HUVECs (passage 7) into each well of a 12-well plate pre-coated with 0.2% gelatin (Sigma) and cultured for 2 days to form a confluent monolayer. Mesothelial cells harvested from two-three mice were initially plated in 6-well plates and grown to confluency in DMEM medium supplemented with 10% fetal bovine serum in the presence of 100 units/ml penicillin G and 10 μg/ml streptomycin. When confluent, the mesothelial cells were split into three equal aliquots (˜5×10^4 cells each) and plated to three wells of a 12-well plate and grown to confluence.
Invasion of MM1 cells of Example 53 was determined and the effect of compounds of the present application in reducing the invasion was determined. For all invasion assays, MM1 cells were pre-stained with 2 μg/ml calcein AM (Invitrogen, USA) for 2 h, rinsed once, and seeded at a density of 5×10^4 cells/well over the monolayers. Tumor cells were left to invade the HUVEC monolayer for 24 h in MCDB-131 complete media containing 1% serum with or without addition of 1.5 μM LPC. MM1 cells were plated on the mesothelial monolayers in 2% fetal bovine serum-supplemented DMEM medium in the presence of 100 units/ml penicillin G and 10 μg/ml streptomycin with or without 1.5 μM LPC (5 μM for the mesothelium cells) and invasion was allowed to proceed for 20 h. The day after MM1 cell seeding, non-invaded tumor cells were removed by repeated five rinses of the HUVEC monolayer (three rinses for the mesothelial monolayers) with PBS (containing Ca^2+ and Mg^2+) followed by fixation with 10% buffered formalin. The number of tumor cells that penetrated the monolayer was photographed under a NIKON TiU inverted microscope using phase-contrast and fluorescence illumination in a minimum of five non-overlapping fields at 100× magnification. The fluorescent images were overlayed on top of the phase contrast images using the Elements BR software (version 3.1x) and the invaded MM1 cells showing the characteristic flattened morphology in the plane of focus underneath the monolayer were counted. […]

recombinant human ATX = recombinant human ATX (Homo sapiens, UniProt Q13822); assay: Autotaxin inhibition screening assay (FS-3 FRET substrate); format: biochemical; settings: FS3 hydrolysis
NPP6 = target: T1, NPP6 (Homo sapiens, UniProt Q6UWR7); assay: NPP-6 inhibition assay (pNPPC substrate); format: biochemical; settings: 10 μM compound; 8.3 nM enzyme; 10 μM pNPPC; read-out: NPP6 Activity, % control (10 μM)
T1 sequence (Q6UWR7 23-419): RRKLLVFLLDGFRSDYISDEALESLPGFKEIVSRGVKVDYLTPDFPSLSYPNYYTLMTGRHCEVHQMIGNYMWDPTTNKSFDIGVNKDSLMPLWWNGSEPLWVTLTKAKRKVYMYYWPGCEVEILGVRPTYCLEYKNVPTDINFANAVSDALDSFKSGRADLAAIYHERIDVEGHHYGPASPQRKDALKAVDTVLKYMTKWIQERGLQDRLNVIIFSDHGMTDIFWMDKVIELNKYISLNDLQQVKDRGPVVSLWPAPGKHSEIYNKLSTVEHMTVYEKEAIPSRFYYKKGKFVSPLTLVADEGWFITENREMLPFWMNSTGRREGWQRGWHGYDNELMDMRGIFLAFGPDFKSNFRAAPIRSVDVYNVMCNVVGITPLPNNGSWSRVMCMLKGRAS
Procedure: NPP6 and NPP7 are the only NPP isoforms other than ATX that are known to utilize lysophospholipid phosphodiesters as substrates. Therefore, the specificity of the chemical compounds of the invention regarding ATX was addressed by determining the activity of NPP6 and NPP7 in the presence and absence of these analogs.
Inhibition of NPP6 and NPP7 was evaluated using recombinant, purified proteins, the synthetic substrate para-nitrophenylphosphocholine (pNPPC) and a Synergy II plate reader (BioTek, Winooski, Vt.). The final concentration of each enzyme was 8.3 nM and pNPPC was 10 μM. All analogs were tested at single 10 μM concentrations. Absorbance of liberated para-nitrophenol at 405 nm was determined up to 1 hour (where responses were linear) and was normalized to vehicle control.

[3] = affinity for enzyme substrate complex

| SMILES | IC50 [1] | ATX Mechanism of inhibition [1] | Ki [1, 3] | Ki ([1]; affinity for free enzyme) | LPC-dependent invasion of the HUVEC monolayer [2] | basal rate of invasion [2] | ATX inhibition in dose-response curves (FIG. 10) (recombinant human ATX) | remaining activity at 10 µM (NPP6) |
| --- | --- | --- | --- | --- | --- | --- | --- | --- |
| CCCCCCCCCCCCCCCc1ccc(CP(=O)(O)O)cc1 [Compound 22, 4-Pentadecylbenzylphosphonic acid] | 170 nM | Mixed | 280 nM | 270 nM | dose-dependently inhibited; also recorded: blockage | did not reduce | dose-dependently and completely inhibited ATX | 96.5% |
| CCCCCCCCCCC/C=C/c1ccc2cc(CP(=O)(O)O)ccc2c1 [Compound 30b, (E)-6-Tridec-1-enyl-naphthalen-2-yl-methylphosphonic acid] | 1400 nM | MIXED | 1010 nM | 1500 nM | dose-dependently inhibited | did not reduce | dose-dependently and completely inhibited ATX | 104% |
